Measurements published in patent publication US20230364118A1, “RIBITOL TREATMENT” (priority 2020, published 2023).
Where two headings read alike, the source gives them in different places.

How the values were obtained:
Phase 2 patient study = assay type: in vivo, human; conditions: for average drop in fatigue (scale of 1 to 10): 90 days
Excerpt: Ribitol is being tested in an ongoing Phase 2 study with 14 patients receiving doses of either 6 g once daily (QD), 6 g twice daily (BID), or 12 g BID. Data is available following 3 months of therapeutic exposure in 8 subjects (6 g QD, n=4, 6 g BID, n=4). […] All 12 subjects have shown decreases in creatine kinase from baseline. Younger, ambulatory patients started with higher baseline creatine kinase values and had the largest magnitude drops. Decreases were observable starting at day 8 with continued declines through day 90. Efficacy studies are ongoing. Improvements in 10-meter walk test (MWT) to test ambulation, NSAD for gross motor function, PUL2.0 for upper limb function, and spirometry for respiratory function have been observed (Table 17). […] Decreases in patient-reported muscle fatigue over the 90-day treatment period has been observed in 7 of 8 patients. These 7/8 patients have reported decreases as recorded in a daily diary and noted on a scale of 1 to 10 where 1 indicates no fatigue and a 10 is the maximum level of fatigue.

[1] = Phase 1 SAD/MAD study in healthy subjects; assay type: in vivo, human; conditions: for Cmax / Tmax / AUC(0-t): human, in vivo, oral, steady state, 6 days; for AUC(0-t): read-out: AUC(0-24)
Excerpt: The study described below is a randomized, blinded, placebo-controlled, parallel group study of the administration of single ascending doses (SAD) and multiple ascending doses (MAD) of ribitol to healthy subjects. The SAD part of this study includes 1 food effect (FE) cohort. The SAD and MAD phases of the study are nested.
Up to a maximum of 6 cohorts will be enrolled. The starting dose will be 0.5 g. Tentative dose levels will be 1.5 g, 3 g, 6 g, and 12 g, however, actual dose increments (including possible decrements) for Cohorts 2 and above will be determined by the safety review committee (SRC) and based on a minimum of 24 h of post dose PK data and at least 72 h post dose safety data from the previous dose level. A sentinel dosing plan will be employed at each dose level where the first 2 healthy participants (1 ribitol, 1 placebo) of each cohort will be dosed as sentinels at least 24 h prior to dosing the remaining cohort's participants. Once the informed consent form (ICF) is signed and eligibility criteria are determined, subjects will be admitted to the clinical research unit (CRU) 1 day prior to dosing (Day −1). Continuous cardiac monitoring using telemetry will be performed starting at least 12 h prior to dosing through at least 24 h after dosing.
Subjects will be admitted to the CRU 1 day prior to dosing (Day −1). On Day 1, subjects will start a 6-day course of orally administered daily study drug together with water after an overnight fast of at least 10 h prior to through at least 4 h after dosing. If dosing occurs more than once per day based on the data from the SAD cohort(s), instructions for dosing and any relaxation of the fasting requirements will be provided in a separate document. Water ad libitum is permitted except 1 h prior to through 1 h after dosing. Subjects will remain in the CRU until Day 8. Vital signs, ECGs, evaluation of AEs and blood draws for PK and safety laboratory tests will be obtained serially (see Schedule of Assessments, below). Subjects will return for an EOS visit on Day 10 (+5 day window allowed).
In the Phase 1 study, conducted essentially as described above, in Example 3. Subject in the single dose arm received 0.5, 1.5, 3, 6, 9, 12, or 15 grams of ribitol (data not shown). […] Subjects in the multiple dose arm received 1.5 g once daily, 3 g once daily, 3 g twice daily (q 12 h), 6 g twice daily (q 12 h), and 9 g twice daily (q 12 h). Subjects in the 3 g BID arm achieved steady-state AUC(0-24) values about the target threshold set by animal studies (182 μg*h/mL).
Clinical studies were performed as described in Example 3, with the exception that two additional doses of ribitol (9 g and 15 g) were administered in the SAD arm, i.e., the SAD doses were 0.5 g, 1.5 g, 3 g, 6 g, 9 g, 12 g, and 15 g ribitol.

In vitro Ames assay = assay type: cell-based
[2] = 3 g, 3 g q 12 h (total 6 g/day)
[3] = 6 g q 12 h, 6 g q 12 h (total 12 g/day)
[4] = 9 g, 9 g q 12 h (total 18 g/day)
[5] = single doses 0.5, 1.5, 3, 6, 9, 12, 15 g

In the case of `OC[C@@H](O)[C@@H](O)[C@@H](O)CO` [ribitol, (2R,3s,4S)-Pentane-1,2,3,4,5-pentol], the “subjects with increase in glycosylation of αDG” value (Phase 2 patient study; 6 g BID, 3 months) is reported as 3 of 4, the “average decrease in creatine kinase” value (Phase 2 patient study; 6 g BID, day 90) is reported as 77% and the “subjects with increase in glycosylation of αDG” value (Phase 2 patient study; 6 g QD, 3 months) is reported as 4 of 4. The “average decrease in creatine kinase” value (Phase 2 patient study; 6 g QD, day 90) was 90%, the “average decrease in creatine kinase” value (Phase 2 patient study; 12 g BID, day 8) was 33% and the “patients with decrease in patient-reported muscle fatigue” value (Phase 2 patient study; 90-day treatment period) was 7 of 8. For the same compound, the “Mean 10MWT (Ambulation)” value (Phase 2 patient study; Baseline, Cohort 1 (6 g QD)) was 2.06 m/sec, the “Mean NSAD (Gross Motor Function)” value (Phase 2 patient study; Baseline, Cohort 1 (6 g QD)) was 33.8 and the “Mean PUL2.0 (Upper Limb Function)” value (Phase 2 patient study; Baseline, Cohort 1 (6 g QD)) was 37.3. For the same compound, the “Mean 10MWT (Ambulation)” value (Phase 2 patient study; Baseline, Cohort 2 (6 g BID)) was 1.48 m/sec, the “Mean NSAD (Gross Motor Function)” value (Phase 2 patient study; Baseline, Cohort 2 (6 g BID)) was 28.5 and the “Mean PP Supine FVC (Respiratory Function)” value (“Mean PP Supine FVC” for short) (Phase 2 patient study; Baseline, Cohort 2 (6 g BID)) was 54.3. For the same compound, the “Mean PUL2.0 (Upper Limb Function)” value (Phase 2 patient study; Baseline, Cohort 2 (6 g BID)) was 35.8, the “Mean 10MWT (Ambulation)” value (Phase 2 patient study; Baseline, Overall) was 1.77 m/sec and the “Mean NSAD (Gross Motor Function)” value (Phase 2 patient study; Baseline, Overall) was 31.1. The “Mean PP Supine FVC” value (Phase 2 patient study; Baseline, Overall) was 54.3, the “Mean PUL2.0 (Upper Limb Function)” value (Phase 2 patient study; Baseline, Overall) was 36.5 and the “Mean 10MWT (Ambulation)” value (Phase 2 patient study; Day 90, Cohort 1 (6 g QD)) was 2.82 m/sec. For the same compound, the “Mean NSAD (Gross Motor Function)” value (Phase 2 patient study; Day 90, Cohort 1 (6 g QD)) was 33.5, the “Mean PP Supine FVC” value (Phase 2 patient study; Day 90, Cohort 1 (6 g QD)) was 79.5 and the “Mean PUL2.0 (Upper Limb Function)” value (Phase 2 patient study; Day 90, Cohort 1 (6 g QD)) was 37.3. For the same compound, the “Mean 10MWT (Ambulation)” value (Phase 2 patient study; Day 90, Cohort 2 (6 g BID)) was 1.56 m/sec, the “Mean NSAD (Gross Motor Function)” value (Phase 2 patient study; Day 90, Cohort 2 (6 g BID)) was 29.0 and the “Mean PP Supine FVC” value (Phase 2 patient study; Day 90, Cohort 2 (6 g BID)) was 50.0. The “Mean PUL2.0 (Upper Limb Function)” value (Phase 2 patient study; Day 90, Cohort 2 (6 g BID)) was 36.3, the “Mean 10MWT (Ambulation)” value (Phase 2 patient study; Day 90, Overall) was 2.10 m/sec and the “Mean NSAD (Gross Motor Function)” value (Phase 2 patient study; Day 90, Overall) was 31.3. The “Mean PP Supine FVC” value (Phase 2 patient study; Day 90, Overall) was 64.8, the “Mean PUL2.0 (Upper Limb Function)” value (Phase 2 patient study; Day 90, Overall) was 36.8 and the “Mean 10MWT (Ambulation)” value (Phase 2 patient study; Delta, Cohort 1 (6 g QD)) was 0.10 m/sec. The “Mean NSAD (Gross Motor Function)” value (Phase 2 patient study; Delta, Cohort 1 (6 g QD)) was −0.3, the “Mean PUL2.0 (Upper Limb Function)” value (Phase 2 patient study; Delta, Cohort 1 (6 g QD)) was 0.0 and the “Mean 10MWT (Ambulation)” value (Phase 2 patient study; Delta, Cohort 2 (6 g BID)) was 0.08 m/sec. The “Mean NSAD (Gross Motor Function)” value (Phase 2 patient study; Delta, Cohort 2 (6 g BID)) was 0.5, the “Mean PP Supine FVC” value (Phase 2 patient study; Delta, Cohort 2 (6 g BID)) was −4.3 and the “Mean PUL2.0 (Upper Limb Function)” value (Phase 2 patient study; Delta, Cohort 2 (6 g BID)) was 0.5. The “Mean 10MWT (Ambulation)” value (Phase 2 patient study; Delta, Overall) was 0.09 m/sec, the “Mean NSAD (Gross Motor Function)” value (Phase 2 patient study; Delta, Overall) was 0.1 and the “Mean PP Supine FVC” value (Phase 2 patient study; Delta, Overall) was −4.3. For the same compound, the “Mean PUL2.0 (Upper Limb Function)” value (Phase 2 patient study; Delta, Overall) was 0.3, the “average increase in glycosylation of αDG” value (Phase 2 patient study; both cohorts (6 g QD, 6 g BID), 3 months) was 13% and the “average drop in fatigue (scale of 1 to 10)” value (Phase 2 patient study; cohort 1 (6 g QD)) was 1.3 points. The “average drop in fatigue (scale of 1 to 10)” value (Phase 2 patient study; cohort 2 (6 g BID)) was 1.5 points, the “dose linearity with exposure” value ([1]; SAD 0.5-15 g) was “confirmed dose linearity with exposure” and the Cmax ([1]; 1.5 g, 1.5 g once daily) was 25000 ng/mL. It also gave a Tmax ([1]; 1.5 g, 1.5 g once daily) of 30.2 min, an AUC(0-t) ([1]; 1.5 g, 1.5 g once daily) of 59.8 µg·h/mL and a Cmax ([1]; 3 g, 3 g once daily) of 35600 ng/mL. It also gave a Tmax ([1]; 3 g, 3 g once daily) of 30.2 min, an AUC(0-t) ([1]; 3 g, 3 g once daily) of 95 µg·h/mL and a Cmax [1, 2] of 38000 ng/mL. The Tmax [1, 2] was 30.1 min, the AUC(0-t) [1, 2] was 219 µg·h/mL and the Cmax [1, 3] was 107000 ng/mL. For the same compound, the Tmax [1, 3] was 45 min, the AUC(0-t) [1, 3] was 500 µg·h/mL and the Cmax [1, 4] was 143000 ng/mL. The Tmax [1, 4] was 30.1 min, the AUC(0-t) [1, 4] was 673 µg·h/mL and the dose limiting toxicity [1, 5] was “no dose limiting toxicity was observed”. The tolerability [1, 5] was “well tolerated” and the genotoxicity (In vitro Ames assay) was “devoid of genotoxicity potential”.
